Biological target: T1, Prolyl endopeptidase FAP (Homo sapiens, UniProt Q12884)
T1 sequence (Q12884 whole entry): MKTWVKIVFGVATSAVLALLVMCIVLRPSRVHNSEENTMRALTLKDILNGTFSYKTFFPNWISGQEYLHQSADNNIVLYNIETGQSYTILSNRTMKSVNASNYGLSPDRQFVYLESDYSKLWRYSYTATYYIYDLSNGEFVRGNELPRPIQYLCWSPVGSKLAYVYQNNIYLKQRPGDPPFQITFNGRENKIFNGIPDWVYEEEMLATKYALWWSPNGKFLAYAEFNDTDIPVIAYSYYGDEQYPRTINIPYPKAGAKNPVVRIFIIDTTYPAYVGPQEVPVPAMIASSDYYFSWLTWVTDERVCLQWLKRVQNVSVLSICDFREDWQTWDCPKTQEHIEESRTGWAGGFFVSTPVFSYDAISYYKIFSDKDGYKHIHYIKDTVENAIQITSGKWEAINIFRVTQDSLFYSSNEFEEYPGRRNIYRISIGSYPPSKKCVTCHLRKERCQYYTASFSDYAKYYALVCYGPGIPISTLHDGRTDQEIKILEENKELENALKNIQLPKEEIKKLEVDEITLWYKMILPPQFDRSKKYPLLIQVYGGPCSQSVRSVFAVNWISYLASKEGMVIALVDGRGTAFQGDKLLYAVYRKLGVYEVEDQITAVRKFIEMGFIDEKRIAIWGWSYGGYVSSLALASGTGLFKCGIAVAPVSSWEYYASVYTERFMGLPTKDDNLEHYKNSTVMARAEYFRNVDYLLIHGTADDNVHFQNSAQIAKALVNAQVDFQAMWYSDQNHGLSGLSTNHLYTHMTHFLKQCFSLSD
Test: hFAP Binding Assay
Details: for kon: read-out: kon (M-1-s-1)

Structure (SMILES) | koff [s⁻¹] | kon [M⁻¹ s⁻¹]
CC(C)C1CN(c2ccc3nccc(C(=O)NCC(=O)N4CSC[C@H]4C#N)c3c2)C1 [US20230312550, Example 148] | 0.0002 | 6.6e+06
N#C[C@@H]1CSCN1C(=O)CNC(=O)c1ccnc2ccc(N3CCC4(CCOCC4)CC3)cc12 [US20230312550, Example 162] | 2.8e-05 | 1.9e+06
N#C[C@@H]1CSCN1C(=O)CNC(=O)c1ccnc2ccc(-c3ccc(C(F)F)nc3)cc12 [US20230312550, Example 169] | 0.00096 | 6.2e+06
Cn1nccc1-c1ccc2nccc(C(=O)NCC(=O)N3CSC[C@H]3C#N)c2c1 [US20230312550, Example 174] | 0.00024 | 1.9e+06
N#C[C@@H]1CSCN1C(=O)CNC(=O)c1ccnc2ccc(-c3ccnn3[C@H]3CCCCO3)cc12 [US20230312550, Example 176] | 0.00022 | 120000
Cc1ccc(-c2ccc3nccc(C(=O)NCC(=O)N4CSC[C@H]4C#N)c3c2)cn1 [US20230312550, Example 177] | 5.8e-05 | 100000
COc1ccc(-c2ccc3nccc(C(=O)NCC(=O)N4CSC[C@H]4C#N)c3c2)cn1 [US20230312550, Example 178] | 0.00017 | 3.1e+06
N#C[C@@H]1CSCN1C(=O)CNC(=O)c1ccnc2cc(Cl)c(N3CCOCC3)cc12 [US20230312550, Example 179] | 0.00016 | 3.2e+06
N#C[C@@H]1CSCN1C(=O)CNC(=O)c1ccnc2c(Cl)cc(N3CCOCC3)cc12 [US20230312550, Example 180] | 0.00095 | 560000
N#C[C@@H]1CSCN1C(=O)CNC(=O)c1ccnc2ccc(N3CC(F)(c4ccccc4)C3)cc12 [US20230312550, Example 182] | 4.2e-05 | 250000
N#C[C@@H]1CSCN1C(=O)CNC(=O)c1ccnc2ccc(N3CC(Cc4ccc(Cl)cc4)C3)cc12 [US20230312550, Example 187] | 0.00022 | 3.1e+06
CCC1(O)CCN(c2ccc3nccc(C(=O)NCC(=O)N4CSC[C@H]4C#N)c3c2)CC1 [US20230312550, Example 189] | 5.1e-05 | 2.6e+06
CCC1(OC)CCN(c2ccc3nccc(C(=O)NCC(=O)N4CSC[C@H]4C#N)c3c2)CC1 [US20230312550, Example 191] | 3.3e-05 | 1.5e+06
CC(C)C1(O)CCN(c2ccc3nccc(C(=O)NCC(=O)N4CSC[C@H]4C#N)c3c2)CC1 [US20230312550, Example 192] | 1.4e-05 | 1.3e+06
C[C@@H]1CN(c2ccc3nccc(C(=O)NCC(=O)N4CSC[C@H]4C#N)c3c2)C[C@H](C)[C@]1(C)O [US20230312550, Example 193] | 0.00012 | 740000
N#C[C@@H]1CSCN1C(=O)CNC(=O)c1ccnc2ccc(N3C[C@H]4CCC[C@@H](C3)O4)cc12 [US20230312550, Example 194] | 6.8e-05 | 1.1e+06
CN1CCC(F)(c2ccc3nccc(C(=O)NCC(=O)N4CSC[C@H]4C#N)c3c2)CC1 [US20230312550, Example 195] | 6.1e-05 | 190000
CC(C)n1nccc1-c1ccc2nccc(C(=O)NCC(=O)N3CSC[C@H]3C#N)c2c1 [US20230312550, Example 197] | 6.6e-05 | 88000
N#C[C@@H]1CSCN1C(=O)CNC(=O)c1ccnc2ccc(N3CCC[C@@H]3C3CC3)cc12 [US20230312550, Example 199] | 0.00026 | 2.3e+06
N#C[C@@H]1CSCN1C(=O)CNC(=O)c1ccnc2ccc(N3CCC[C@H]3C3CC3)cc12 [US20230312550, Example 200] | 0.00023 | 2.5e+06
C[C@@H]1CCN(c2ccc3nccc(C(=O)NCC(=O)N4CSC[C@H]4C#N)c3c2)C1=O [US20230312550, Example 202] | 7e-05 | 1.6e+06
C[C@H]1CCCN(c2ccc3nccc(C(=O)NCC(=O)N4CSC[C@H]4C#N)c3c2)C1=O [US20230312550, Example 203] | 6.3e-05 | 440000
C[C@@H]1CCCN(c2ccc3nccc(C(=O)NCC(=O)N4CSC[C@H]4C#N)c3c2)C1=O [US20230312550, Example 204] | 5.8e-05 | 850000
N#C[C@@H]1CSCN1C(=O)CNC(=O)c1ccnc2ccc(N3C4CCC3CC4)cc12 [US20230312550, Example 209] | 4.2e-05 | 3.2e+06

Second part, the compound after the results:

koff [s⁻¹] | kon [M⁻¹ s⁻¹] | Structure (SMILES)
7.8e-05 | 1.4e+06 | N#C[C@@H]1CSCN1C(=O)CNC(=O)c1ccnc2ccc(N3CC4(CCCC4(F)F)C3)cc12 [US20230312550, Example 141]
5.5e-05 | 1.8e+06 | N#C[C@@H]1CSCN1C(=O)CNC(=O)c1ccnc2ccc(N3CC(CCC(F)(F)F)C3)cc12 [US20230312550, Example 142]
5.7e-05 | 1.6e+06 | N#C[C@@H]1CSCN1C(=O)CNC(=O)c1ccnc2ccc(N3CC(F)(C(F)(F)F)C3)cc12 [US20230312550, Example 143]
0.00051 | 9.1e+06 | N#C[C@@H]1CSCN1C(=O)CNC(=O)c1ccnc2ccc(N3CC(CC(F)F)C3)cc12 [US20230312550, Example 144]
0.00013 | 4.5e+06 | N#C[C@@H]1CSCN1C(=O)CNC(=O)c1ccnc2ccc(N3CC(C4CC4)C3)cc12 [US20230312550, Example 145]
0.00017 | 1.4e+06 | N#C[C@@H]1CSCN1C(=O)CNC(=O)c1ccnc2ccc(N3CC(CCF)C3)cc12 [US20230312550, Example 146]
0.00012 | 2.8e+06 | CC(F)(F)C1CN(c2ccc3nccc(C(=O)NCC(=O)N4CSC[C@H]4C#N)c3c2)C1 [US20230312550, Example 147]
3.9e-05 | 4.8e+06 | CC1CC2(C1)CN(c1ccc3nccc(C(=O)NCC(=O)N4CSC[C@H]4C#N)c3c1)C2 [US20230312550, Example 149]
4.3e-05 | 280000 | N#C[C@@H]1CSCN1C(=O)CNC(=O)c1ccnc2ccc(N3CC4(CC(C(F)(F)F)C4)C3)cc12 [US20230312550, Example 150]
5.4e-05 | 910000 | CCC1(O)CN(c2ccc3nccc(C(=O)NCC(=O)N4CSC[C@H]4C#N)c3c2)C1 [US20230312550, Example 154]
5e-05 | 3.1e+06 | N#C[C@@H]1CSCN1C(=O)CNC(=O)c1ccnc2ccc(N3CC4(CC(F)C4)C3)cc12 [US20230312550, Example 155]
0.00012 | 1.9e+06 | N#C[C@@H]1CSCN1C(=O)CNC(=O)c1ccnc2ccc(N3CC(F)(CF)C3)cc12 [US20230312550, Example 157]
0.00029 | 3.1e+06 | N#C[C@@H]1CSCN1C(=O)CNC(=O)c1ccnc2ccc(N3CC(CC(F)(F)F)C3)cc12 [US20230312550, Example 158]
9.2e-05 | 2.1e+06 | C[C@H]1N(c2ccc3nccc(C(=O)NCC(=O)N4CSC[C@H]4C#N)c3c2)CC1(F)F [US20230312550, Example 159]
7.4e-05 | 1.1e+06 | N#C[C@@H]1CSCN1C(=O)CNC(=O)c1ccnc2ccc(N3CC4C(C3)C4(F)F)cc12 (stereo not given in full) [US20230312550, Example 160]
0.00028 | 1.4e+07 | CO[C@@H]1CCN(c2ccc3nccc(C(=O)NCC(=O)N4CSC[C@H]4C#N)c3c2)C1 [US20230312550, Example 161]
3.6e-05 | 1.4e+06 | N#C[C@@H]1CSCN1C(=O)CNC(=O)c1ccnc2ccc(N3CC4(CC4)C3)cc12 [US20230312550, Example 164]
6.3e-05 | 1.2e+06 | CC1(O)CN(c2ccc3nccc(C(=O)NCC(=O)N4CSC[C@H]4C#N)c3c2)C1 [US20230312550, Example 165]
4.9e-05 | 2.2e+06 | N#C[C@@H]1CSCN1C(=O)CNC(=O)c1ccnc2ccc(N3CC4(COC4)C3)cc12 [US20230312550, Example 166]
4.8e-05 | 1.6e+06 | C[C@]1(O)CCN(c2ccc3nccc(C(=O)NCC(=O)N4CSC[C@H]4C#N)c3c2)C1 [US20230312550, Example 168]
1.4e-05 | 950000 | CC(=O)N1CC2(C1)CN(c1ccc3nccc(C(=O)NCC(=O)N4CSC[C@H]4C#N)c3c1)C2 [US20230312550, Example 184]
2.2e-05 | 2.6e+06 | CC1(CS(C)(=O)=O)CN(c2ccc3nccc(C(=O)NCC(=O)N4CSC[C@H]4C#N)c3c2)C1 [US20230312550, Example 188]
3.6e-05 | 1.8e+06 | CC1(O)CCN(c2ccc3nccc(C(=O)NCC(=O)N4CSC[C@H]4C#N)c3c2)CC1 [US20230312550, Example 190]
0.00011 | 2.9e+06 | C[C@]1(F)CCN(c2ccc3nccc(C(=O)NCC(=O)N4CSC[C@H]4C#N)c3c2)C1 [US20230312550, Example 198]
5.3e-05 | 4.6e+06 | CO[C@H]1CCN(c2ccc3nccc(C(=O)NCC(=O)N4CSC[C@H]4C#N)c3c2)C1 [US20230312550, Example 207]
0.00026 | 5.6e+06 | N#C[C@@H]1CSCN1C(=O)CNC(=O)c1ccnc2ccc(N3C[C@@H]4[C@H](C3)[C@H]4C(F)(F)F)cc12 [US20230312550, Example 208]

— BindingDB's records for patent US20230312550 (Astrazeneca, 2023)
